# Measurements from patent US10442808B2, “Pyrazolo pyrimidine derivatives and their use as MALT1 inhbitors” (NOVARTIS AG, priority 2014, dated 2019).
# Test system: IL2 promoter
# Test: Human IL2 promoter reporter gene assay (RGA) in Jurkat cells
# Format: cell-based
# Settings: […], heading: IL2 reporter gene assay IC50, anti-CD28 mAb + PMA stimulation 5.5 h
# Protocol: Human IL2 Promoter Reporter Gene Assay (RGA) in Jurkat Cells
# The transfected Jurkat clone K22 290_H23 was propagated in RPMI 1640 supplemented with 10% heat inactivated fetal calf serum, 50 μM 2-mercaptoethanol and 1 mg/ml Geneticin. The cell concentration should not exceed 1×10e6/ml during culturing. The cells should not exceed passage 30. Prior to the assay the cells were washed and prepared to the concentration of 2×10e6 cells/ml.
# Compound dilutions were made as 2×-concentrated solutions then diluted ½ by addition to cells. Two hundred and fifty μl of compound dilution and 250 μl of cells were mixed together in wells of a 96-deep well plate. Cells/compounds premix were incubated 30 min at 37° C. and 5% CO2 directly in the deep well plate.
# After pre-incubation of cells with compounds, cells were stimulated with anti-CD28 mAb (clone 15E8) at 3 μg/ml+PMA at 1 μg/ml. Both co-stimulants were diluted in culture medium at a 10×-concentrated solution. 10 μl of co-stimulants were pipetted into the white 96-well plates and 100 μl of cell/compound mix was immediately added in duplicates. The cells were stimulated for 5.5 h at 37° C. and 5% CO2.
# After cell stimulation, 50 μl of BriteLitePlus reagent (Perkin Elmer) was added to each well and the bioluminescence was measured with a Wallac EnVision reader (Perkin Elmer).
row,IC50,Compound
1,52 nM,"CO[C@@H](c1c(NC(=O)Nc2cnc(-n3nccn3)c(Cl)c2)cnc2cc(Cl)nn12)C(C)C [Example 5, (R)-1-(5-chloro-6-(2H-1,2,3-triazol-2-yl)pyridin-3-yl)-3-(2-chloro-7-(1-methoxy-2-methylpropyl)pyrazolo[1,5-a]pyrimidin-6-yl)urea]"
2,30 nM,"CO[C@@H](C)c1c(NC(=O)Nc2ccnc(C(F)(F)F)c2)cnc2cc(C)nn12 [Example 6, (S)-1-(7-(1-methoxyethyl)-2-methylpyrazolo[1,5-a]pyrimidin-6-yl)-3-(2-(trifluoromethyl)pyridin-4-yl)urea]"
3,33 nM,"CO[C@@H](C)c1c(NC(=O)Nc2ccnc(C(F)(F)F)c2)cnc2cc(F)nn12 [Example 7, (S)-1-(2-fluoro-7-(1-methoxyethyl)pyrazolo[1,5-a]pyrimidin-6-yl)-3-(2-(trifluoromethyl)pyridin-4-yl)urea]"
4,19 nM,"COc1ncc(NC(=O)Nc2cnc3cc(Cl)nn3c2[C@H](C)OC)cc1Cl [Example 9, (S)-1-(5-chloro-6-methoxypyridin-3-yl)-3-(2-chloro-7-(1-methoxyethyl)pyrazolo [1,5-a]pyrimidin-6-yl)urea]"
5,39 nM,"CO[C@@H](C)c1c(NC(=O)Nc2ccnc(Cl)c2)cnc2cc(Cl)nn12 [Example 12, (S)-1-(2-chloro-7-(1-methoxyethyl)pyrazolo [1,5-a]pyrimidin-6-yl)-3-(2-chloropyridin-4-yl)urea]"
6,67 nM,"COC(=O)c1cc(Cl)cc(NC(=O)Nc2cnc3cc(Cl)nn3c2[C@H](C)OC)c1 [Example 13, (S)-methyl 3-chloro-5-(3-(2-chloro-7-(1-methoxyethyl)pyrazolo [1,5-a]pyrimidin-6-yl)ureido)benzoate]"
7,207 nM,"CC1(c2c(NC(=O)Nc3cnc(-n4nccn4)c(Cl)c3)cnc3cc(Cl)nn23)CC1 [Example 16, 1-(5-chloro-6-(2H-1,2,3-triazol-2-yl)pyridin-3-yl)-3-(2-chloro-7-(1-methylcyclopropyl)pyrazolo[1,5-a]pyrimidin-6-yl)urea]"
8,149 nM,"CC1(c2c(NC(=O)Nc3ccnc(C(F)(F)F)c3)cnc3cc(Cl)nn23)CC1 [Example 17, 1-(2-chloro-7-(1-methylcyclopropyl)pyrazolo[1,5-a]pyrimidin-6-yl)-3-(2-(trifluoromethyl)pyridin-4-yl)urea]"
9,245 nM,"COc1ncc(NC(=O)Nc2cnc3cc(Cl)nn3c2C(C)C)cc1Cl [Example 18, 1-(5-chloro-6-methoxypyridin-3-yl)-3-(2-chloro-7-isopropylpyrazolo[1,5-a]pyrimidin-6-yl)urea]"
10,104 nM,"Cc1ncn(-c2ccc(NC(=O)Nc3cnc4cc(Cl)nn4c3C(C)C)cc2C#N)n1 [Example 19, 1-(2-chloro-7-isopropylpyrazolo[1,5-a]pyrimidin-6-yl)-3-(3-cyano-4-(3-methyl-1H-1,2,4-triazol-1-yl)phenyl)urea]"
11,100 nM,"CC(C)c1c(NC(=O)Nc2ccc(-n3nccn3)c(Cl)c2)cnc2cc(Cl)nn12 [Example 20, l-(3-chloro-4-(2H-1,2,3-triazol-2-yl)phenyl)-3-(2-chloro-7-isopropylpyrazolo [1,5-a]pyrimidin-6-yl)urea]"
12,214 nM,"Cc1cnn(-c2ncc(NC(=O)Nc3cnc4cc(Cl)nn4c3C(C)C)cc2Cl)n1 [Example 22, 1-(5-chloro-6-(4-methyl-2H-1,2,3-triazol-2-yl)pyridin-3-yl)-3-(2-chloro-7-isopropylpyrazolo[1,5-a]pyrimidin-6-yl)urea]"
13,248 nM,"CCOc1ncc(NC(=O)Nc2cnc3cc(Cl)nn3c2C(C)C)cc1Cl [Example 25, 1-(5-chloro-6-ethoxypyridin-3-yl)-3-(2-chloro-7-isopropylpyrazolo[1,5-a]pyrimidin-6-yl)urea]"
14,507 nM,"CC(C)c1c(NC(=O)Nc2cnc(N3CCCS3(=O)=O)c(C(F)(F)F)c2)cnc2cc(Cl)nn12 [Example 27, 1-(2-chloro-7-isopropylpyrazolo[1,5-a]pyrimidin-6-yl)-3-(6-(1,1-dioxidoisothiazolidin-2-yl)-5-(trifluoromethyl)pyridin-3-yl)urea]"
15,221 nM,"CC(C)c1c(NC(=O)Nc2cnc(-c3ccnn3C)c(Cl)c2)cnc2cc(Cl)nn12 [Example 29, 1-(5-chloro-6-(1-methyl-1H-pyrazol-5-yl)pyridin-3-yl)-3-(2-chloro-7-isopropylpyrazolo[1,5-a]pyrimidin-6-yl)urea]"
16,59 nM,"CC(C)c1c(NC(=O)Nc2cc(C(F)(F)F)cn(C)c2=O)cnc2cc(Cl)nn12 [Example 32, 1-(2-chloro-7-isopropylpyrazolo[1,5-a]pyrimidin-6-yl)-3-(1-methyl-2-oxo-5-(trifluoromethyl)-1,2-dihydropyridin-3-yl)urea]"
17,145 nM,"CC(C)(C)c1c(NC(=O)Nc2cnc(-n3nccn3)c(Cl)c2)cnc2cc(Cl)nn12 [Example 34, 1-(7-(tert-butyl)-2-chloropyrazolo[1,5-a]pyrimidin-6-yl)-3-(5-chloro-6-(2H-1,2,3-triazol-2-yl)pyridin-3-yl)urea]"
18,43 nM,"CC1(c2c(NC(=O)Nc3ccnc(C(F)(F)F)c3)cnc3cc(Cl)nn23)CCCO1 (stereo not shown) [Example 36, 1-(2-chloro-7-(2-methyltetrahydrofuran-2-yl)pyrazolo[1,5-a]pyrimidin-6-yl)-3-(2-(trifluoromethyl)pyridin-4-yl)urea]"
19,82 nM,"COCCO[C@@H](C)c1c(NC(=O)Nc2ccnc(C(F)(F)F)c2)cnc2cc(Cl)nn12 [Example 41, (S)-1-(2-chloro-7-(1-(2-methoxyethoxy)ethyl)pyrazolo[1,5-a]pyrimidin-6-yl)-3-(2-(trifluoromethyl)pyridin-4-yl)urea]"
20,95 nM,"COC(c1ccccc1)c1c(NC(=O)Nc2cnc(-n3nccn3)c(Cl)c2)cnc2cc(Cl)nn12 (stereo not shown) [Example 49, 1-(5-chloro-6-(2H-1,2,3-triazol-2-yl)pyridin-3-yl)-3-(2-chloro-7-(methoxy(phenyl)methyl)pyrazolo[1,5-a]pyrimidin-6-yl)urea]"
21,267 nM,"COCC1(c2c(NC(=O)Nc3ccnc(C(F)(F)F)c3)cnc3cc(Cl)nn23)CCC1 [Example 51, 1-(2-chloro-7-(1-(methoxymethyl)cyclobutyl)pyrazolo[1,5-a]pyrimidin-6-yl)-3-(2-(trifluoromethyl)pyridin-4-yl)urea]"
22,266 nM,"O=C(Nc1cnc(-n2nccn2)c(C(F)(F)F)c1)Nc1cnc2cc(Cl)nn2c1C1CCCO1 (stereo not shown) [Example 54, 1-(6-(2H-1,2,3-triazol-2-yl)-5-(trifluoromethyl)pyridin-3-yl)-3-(2-chloro-7-(tetrahydrofuran-2-yl)pyrazolo[1,5-a]pyrimidin-6-yl)urea]"
23,14 nM,"CC(C)OCc1c(NC(=O)Nc2cnc(-n3nccn3)c(Cl)c2)cnc2cc(Cl)nn12 [Example 61, 1-(5-chloro-6-(2H-1,2,3-triazol-2-yl)pyridin-3-yl)-3-(2-chloro-7-(isopropoxymethyl)pyrazolo[1,5-a]pyrimidin-6-yl)urea]"
24,140 nM,"Cc1c(NC(=O)Nc2cnc(-n3nccn3)c(Cl)c2)cnc2cc(Cl)nn12 [Example 62, 1-(5-chloro-6-(2H-1,2,3-triazol-2-yl)pyridin-3-yl)-3-(2-chloro-7-methylpyrazolo[1,5-a]pyrimidin-6-yl)urea]"
25,91 nM,"O=C(Nc1cnc(-n2nccn2)c(C(F)(F)F)c1)Nc1cnc2cc(Cl)nn2c1-c1ccco1 [Example 63, 1-(6-(2H-1,2,3-triazol-2-yl)-5-(trifluoromethyl)pyridin-3-yl)-3-(2-chloro-7-(furan-2-yl)pyrazolo[1,5-a]pyrimidin-6-yl)urea]"

row,Compound,IC50
1,"CO[C@@H](C)c1c(NC(=O)Nc2cncc(C#N)c2)cnc2cc(Cl)nn12 [Example 8, (S)-1-(2-chloro-7-(1-methoxyethyl)pyrazolo[1,5-a]pyrimidin-6-yl)-3-(5-cyanopyridin-3-yl)urea]",109 nM
2,"CC(C)c1c(NC(=O)Nc2cnc(-n3nccn3)c(Cl)c2)cnc2cc(Cl)nn12 [Example 21, 1-(5-chloro-6-(2H-1,2,3-triazol-2-yl)pyridin-3-yl)-3-(2-chloro-7-isopropylpyrazolo[1,5-a]pyrimidin-6-yl)urea]",307 nM
3,"COC[C@H](C)c1c(NC(=O)Nc2cnc(-n3nccn3)c(Cl)c2)cnc2cc(Cl)nn12 [Example 45, (R)-1-(5-chloro-6-(2H-1,2,3-triazol-2-yl)pyridin-3-yl)-3-(2-chloro-7-(1-methoxypropan-2-yl)pyrazolo[1,5-a]pyrimidin-6-yl)urea]",63 nM
4,"CO[C@H](C)c1c(NC(=O)Nc2ccnc(C(F)(F)F)c2)cnc2cc(Cl)nn12 [Example 47, (R)-1-(2-chloro-7-(1-methoxyethyl)pyrazolo [1,5-a]pyrimidin-6-yl)-3-(2-(trifluoromethyl)pyridin-4-yl)urea]",94 nM

# Same assay, conditions: anti-CD28 mAb + PMA stimulation 5.5 h
row,Compound,IC50
1,"CO[C@@H](C)c1c(NC(=O)Nc2ccnc(C(F)(F)F)c2)cnc2cc(Cl)nn12 [Example 2, (S)-1-(2-chloro-7-(1-methoxyethyl)pyrazolo[1,5-a]pyrimidin-6-yl)-3-(2-(trifluoromethyl)pyridin-4-yl)urea]",51 nM
2,"CO[C@@H](C)c1c(NC(=O)Nc2cc(C(F)(F)F)cn(C)c2=O)cnc2cc(Cl)nn12 [Example 3, (S)-1-(2-chloro-7-(1-methoxyethyl)pyrazolo[1,5-a]pyrimidin-6-yl)-3-(1-methyl-2-oxo-5-(trifluoromethyl)-1,2-dihydropyridin-3-yl)urea]",131 nM
